The text below walks through data of US11420970B1 (NOVARTIS AG, priority 2019, dated 2022).

The structures appear in SMILES notation.

Assay [1] concerns cellular H3K36me2 level in thyroid carcinoma cell line CGTH-W-1 (NSD2 E1099K). The assay is described as follows: H3K36me2 cellular ELISA assay in CGTH-W-1 line. In kind it is cell-based. Conditions: Homo sapiens, CGTH-W-1, 72 h, read-out: H3K36me2 ELISA in CGTH-W-1. The essentials:
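After 72 h compound treatment of NSD2 E1099K-mutant CGTH-W-1 cells, H3K36me2 and total H3 were quantified by ELISA with chemiluminescent read-out. A parallel-seeded plate gave cell viability by CellTiter-Glo.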

Assay [2] relates to cellular H3K36me2 level in multiple myeloma cell line KMS11 (t(4;14)+). In words: H3K36me2 cellular ELISA assay in KMS11-Par line. Format: cell-based. Conditions: Homo sapiens, KMS-11; KMS11-Par line (t(4;14)+), 72 hours treatment, ELISA; read-out: H3K36me2 ELISA in KMS11-Par. The essentials:
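After 72 h compound exposure, HCl-extracted histones from KMS11 (t(4;14)+) cells were probed by ELISA for H3K36me2 against total H3 with a chemiluminescence read-out. Cells were plated at 1,250/well in Opti-MEM plus B-27 and N2 the day before. A parallel CellTiter-Glo plate tracked viability.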
In general terms: ELISA stands for enzyme-linked immunosorbent assay.

The target in the next assay is NSD2 [1-1365] (Homo sapiens (Human), UniProt O96028). The assay is described as follows: LC-MS/MS-based NSD2 enzymatic assay (SAH production). Format: biochemical. Particulars: NSD2 biochemical activity, class symbols; read-out: NSD2 IC50. The essentials:
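SAH formed was measured by LC-MS/MS using d4-SAH as internal standard and an SAH calibration curve. Compounds were preincubated 20 min with NSD2 [1-1365] and SAM; mouse-liver nucleosome then started a 90 min room-temperature reaction (8 nM enzyme, 1 μM SAM, 400 nM nucleosome final, pH 8.0), stopped with TFA.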

Chain of NSD2 [1-1365] (O96028 whole entry): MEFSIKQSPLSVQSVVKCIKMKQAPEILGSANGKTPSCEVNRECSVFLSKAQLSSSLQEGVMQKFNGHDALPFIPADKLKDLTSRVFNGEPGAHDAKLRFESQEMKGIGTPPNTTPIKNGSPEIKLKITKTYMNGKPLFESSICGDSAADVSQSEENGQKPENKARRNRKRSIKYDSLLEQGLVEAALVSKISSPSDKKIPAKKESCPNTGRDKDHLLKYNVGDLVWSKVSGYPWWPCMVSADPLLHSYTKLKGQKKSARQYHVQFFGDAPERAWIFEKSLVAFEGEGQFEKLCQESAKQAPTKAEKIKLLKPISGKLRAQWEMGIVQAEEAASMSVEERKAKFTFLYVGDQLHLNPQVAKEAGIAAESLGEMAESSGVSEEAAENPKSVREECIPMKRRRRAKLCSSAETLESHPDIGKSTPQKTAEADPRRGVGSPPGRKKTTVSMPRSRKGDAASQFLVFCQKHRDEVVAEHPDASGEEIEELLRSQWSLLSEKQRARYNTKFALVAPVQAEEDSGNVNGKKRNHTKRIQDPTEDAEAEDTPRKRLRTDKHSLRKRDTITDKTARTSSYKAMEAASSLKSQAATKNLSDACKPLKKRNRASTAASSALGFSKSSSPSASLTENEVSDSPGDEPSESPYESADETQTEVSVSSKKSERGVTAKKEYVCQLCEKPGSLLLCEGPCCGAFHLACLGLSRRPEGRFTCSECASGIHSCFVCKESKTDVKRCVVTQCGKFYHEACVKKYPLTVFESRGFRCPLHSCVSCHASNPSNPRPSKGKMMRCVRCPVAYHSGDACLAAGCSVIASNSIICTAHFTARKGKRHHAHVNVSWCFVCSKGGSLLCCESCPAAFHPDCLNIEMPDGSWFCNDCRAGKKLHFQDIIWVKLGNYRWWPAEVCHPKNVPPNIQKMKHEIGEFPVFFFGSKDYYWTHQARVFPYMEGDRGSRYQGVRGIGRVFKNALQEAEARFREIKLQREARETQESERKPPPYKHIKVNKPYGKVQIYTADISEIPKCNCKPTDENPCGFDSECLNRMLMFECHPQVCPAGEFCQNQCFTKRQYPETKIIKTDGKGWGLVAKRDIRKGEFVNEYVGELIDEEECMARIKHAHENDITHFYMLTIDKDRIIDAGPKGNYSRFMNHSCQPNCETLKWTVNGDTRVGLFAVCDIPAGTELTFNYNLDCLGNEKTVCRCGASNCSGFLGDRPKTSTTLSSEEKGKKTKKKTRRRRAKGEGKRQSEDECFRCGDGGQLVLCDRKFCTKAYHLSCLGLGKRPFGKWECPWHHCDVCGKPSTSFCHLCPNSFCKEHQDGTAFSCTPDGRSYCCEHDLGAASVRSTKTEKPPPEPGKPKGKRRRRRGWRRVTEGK

Turning to `Nc1ncnc2c1ncn2Cc1cc(-c2ccc(Cl)cc2F)ncc1N1CCC[C@](N)([C@@H](O)C(F)F)C1` [Example 133, (R)-1-((R)-3-amino-1-(4-((6-amino-9H-purin-9-yl)methyl)-6-(4-chloro-2-fluorophenyl)pyridin-3-yl)piperidin-3-yl)-2,2-difluoroethan-1-ol], the IC50 was 177 nM in assay [1], 1610 nM in assay [2] and 10 to 1000 nM at NSD2 [1-1365].
As to `Nc1ncnc2c1ncn2Cc1cc(-c2cc(F)c(C(F)F)cc2F)ncc1N1CCC[C@](N)([C@@H](O)C(F)F)C1` [Example 134, (R)-1-((R)-3-amino-1-(4-((6-amino-9H-purin-9-yl)methyl)-6-(4-(difluoromethyl)-2,5-difluorophenyl)pyridin-3-yl)piperidin-3-yl)-2,2-difluoroethan-1-ol], the results for the IC50 (in assay [1]; in assay [2]; on NSD2 [1-1365]) were 601 nM, 830 nM and 10 to 1000 nM, respectively.
`Nc1ncnc2c1ncn2Cc1cc(-c2ccc(OC(F)F)cc2F)ncc1N1CCC[C@](N)([C@@H](O)C(F)F)C1` [Example 138, (R)-1-((R)-3-amino-1-(4-((6-amino-9H-purin-9-yl)methyl)-6-(4-(difluoromethoxy)-2-fluorophenyl)pyridin-3-yl)piperidin-3-yl)-2,2-difluoroethan-1-ol]: the IC50 was 132 nM in assay [1], 1570 nM in assay [2] and 10 to 1000 nM on NSD2 [1-1365].
For `Nc1ncnc2c1ncn2Cc1cc(-c2ccc(F)c(Cl)c2)ncc1N1CCC[C@](N)([C@H](O)C(F)F)C1` [Example 139, (S)-1-((R)-3-amino-1-(4-((6-amino-9H-purin-9-yl)methyl)-6-(3-chloro-4-fluorophenyl)pyridin-3-yl)piperidin-3-yl)-2,2-difluoroethan-1-ol] the same measures were 669 nM, 2840 nM and 10 to 1000 nM.
For `Nc1ncnc2c1ncn2Cc1cc(-c2ccc(C(F)(F)F)cc2F)ncc1N1CCC[C@](N)([C@@H](O)C(F)F)C1` [Example 141, (R)-1-((R)-3-amino-1-(4-((6-amino-9H-purin-9-yl)methyl)-6-(2-fluoro-4-(trifluoromethyl)phenyl)pyridin-3-yl)piperidin-3-yl)-2,2-difluoroethan-1-ol] the same measures were 1150 nM, 7700 nM and 10 to 1000 nM.
For `Nc1ncnc2c1ncn2Cc1cc(-c2cc(F)c(O)cc2F)ncc1N1CCC[C@](N)([C@H](O)C(F)F)C1` [Example 144, 4-(5-((R)-3-amino-3-((S)-2,2-difluoro-1-hydroxyethyl)piperidin-1-yl)-4-((6-amino-9H-purin-9-yl)methyl)pyridin-2-yl)-2,5-difluorophenol] the same measures were 2580 nM, 10400 nM and 10 to 1000 nM.
Regarding `Nc1ncnc2c1ncn2Cc1cc(C2CCCCC2)ncc1N1CCC[C@](N)([C@H](O)C(F)F)C1` [Example 145, (S)-1-((R)-3-amino-1-(4-((6-amino-9H-purin-9-yl)methyl)-6-cyclohexylpyridin-3-yl)piperidin-3-yl)-2,2-difluoroethan-1-ol], the IC50 is 990 nM in assay [1], 8110 nM in assay [2] and 10 to 1000 nM on NSD2 [1-1365].
In the case of `Nc1ncnc2c1ncn2Cc1cc(-c2ccc(F)cc2F)ncc1N1CCC[C@](N)([C@@H](O)C(F)F)C1` [Example 147, (R)-1-((R)-3-amino-1-(4-((6-amino-9H-purin-9-yl)methyl)-6-(2,4-difluorophenyl)pyridin-3-yl)piperidin-3-yl)-2,2-difluoroethan-1-ol], the IC50 in assay [1] was 44 nM; in assay [2], 2490 nM; on NSD2 [1-1365] it was 10 to 1000 nM.
The corresponding values for `Nc1ncnc2c1ncn2Cc1cc(-c2ccc(Cl)cc2F)ncc1N1CCC[C@](N)([C@H](O)C(F)F)C1` [Example 148, (S)-1-((R)-3-amino-1-(4-((6-amino-9H-purin-9-yl)methyl)-6-(4-chloro-2-fluorophenyl)pyridin-3-yl)piperidin-3-yl)-2,2-difluoroethan-1-ol] are 671 nM, 2160 nM and 10 to 1000 nM.
On to `Nc1ncnc2c1ncn2Cc1cc(-c2cc(F)c(OC(F)F)cc2F)ncc1N1CCC[C@](N)([C@@H](O)C(F)F)C1` [Example 150, (R)-1-((R)-3-amino-1-(4-((6-amino-9H-purin-9-yl)methyl)-6-(4-(difluoromethoxy)-2,5-difluorophenyl)pyridin-3-yl)piperidin-3-yl)-2,2-difluoroethan-1-ol], for which the IC50 was 307 nM in assay [1], 1670 nM in assay [2] and 10 to 1000 nM on NSD2 [1-1365].
For `Nc1ncnc2c1ncn2Cc1cc(-c2ccc(F)cc2F)ncc1N1CCC[C@](N)([C@H](O)C(F)F)C1` [Example 151, (S)-1-((R)-3-amino-1-(4-((6-amino-9H-purin-9-yl)methyl)-6-(2,4-difluorophenyl)pyridin-3-yl)piperidin-3-yl)-2,2-difluoroethan-1-ol] the same measures were 842 nM, 4190 nM and 10 to 1000 nM.
For `Nc1ncnc2c1ncn2Cc1cc(-c2ccc(Cl)c(F)c2)ncc1N1CCC[C@](N)([C@H](O)C(F)F)C1` [Example 152, (S)-1-((R)-3-amino-1-(4-((6-amino-9H-purin-9-yl)methyl)-6-(4-chloro-3-fluorophenyl)pyridin-3-yl)piperidin-3-yl)-2,2-difluoroethan-1-ol] the same measures were 68.7 nM, 1770 nM and 10 to 1000 nM.
For `Nc1ncnc2c1ncn2Cc1cc(-c2ccc(OC(F)F)cc2F)ncc1N1CCC[C@](N)([C@H](O)C(F)F)C1` [Example 153, (S)-1-((R)-3-amino-1-(4-((6-amino-9H-purin-9-yl)methyl)-6-(4-(difluoromethoxy)-2-fluorophenyl)pyridin-3-yl)piperidin-3-yl)-2,2-difluoroethan-1-ol] the same measures were 217 nM, 5080 nM and 10 to 1000 nM.
With `Nc1ncnc2c1ncn2Cc1cc(-c2cc(F)cc(C(F)F)c2F)ncc1N1CCC[C@](N)([C@@H](O)C(F)F)C1` [Example 154, (R)-1-((R)-3-amino-1-(4-((6-amino-9H-purin-9-yl)methyl)-6-(3-(difluoromethyl)-2,5-difluorophenyl)pyridin-3-yl)piperidin-3-yl)-2,2-difluoroethan-1-ol], the IC50 in assay [1] is 2930 nM; in assay [2] it was 9110 nM; on NSD2 [1-1365] it was 10 to 1000 nM.
For `Nc1ncnc2c1ncn2Cc1cc(-c2ccc(F)cn2)ncc1N1CCC[C@](N)([C@@H](O)C(F)F)C1` [Example 155, (R)-1-((R)-3-amino-1-(4-((6-amino-9H-purin-9-yl)methyl)-5′-fluoro-[2,2′-bipyridin]-5-yl)piperidin-3-yl)-2,2-difluoroethan-1-ol] the same measures were 1170 nM, 16400 nM and 10 to 1000 nM.
For `Nc1ncnc2c1ncn2Cc1cc(-c2cc(F)c(F)cc2F)ncc1N1CCC[C@](N)([C@@H](O)C(F)F)C1` [Example 156, (R)-1-((R)-3-amino-1-(4-((6-amino-9H-purin-9-yl)methyl)-6-(2,4,5-trifluorophenyl)pyridin-3-yl)piperidin-3-yl)-2,2-difluoroethan-1-ol] the same measures were 41 nM, 574 nM and 1 to 10 nM.
For `Nc1ncnc2c1ncn2Cc1cc(-c2cc(F)c(F)cc2F)ncc1N1CCC[C@](N)([C@H](O)C(F)F)C1` [Example 157, (S)-1-((R)-3-amino-1-(4-((6-amino-9H-purin-9-yl)methyl)-6-(2,4,5-trifluorophenyl)pyridin-3-yl)piperidin-3-yl)-2,2-difluoroethan-1-ol] the same measures were 385 nM, 1310 nM and 1 to 10 nM.
With `Nc1ncnc2c1ncn2Cc1cc(-c2ccc(F)cc2C(F)F)ncc1N1CCC[C@](N)([C@@H](O)C(F)F)C1` [Example 158, (R)-1-((R)-3-amino-1-(4-((6-amino-9H-purin-9-yl)methyl)-6-(2-(difluoromethyl)-4-fluorophenyl)pyridin-3-yl)piperidin-3-yl)-2,2-difluoroethan-1-ol], the IC50 is 100 nM in assay [1], 802 nM in assay [2] and 1 to 10 nM at NSD2 [1-1365].
Regarding `Nc1ncnc2c1ncn2Cc1cc(-c2ccc(F)cc2C(F)F)ncc1N1CCC[C@](N)([C@H](O)C(F)F)C1` [Example 159, (S)-1-((R)-3-amino-1-(4-((6-amino-9H-purin-9-yl)methyl)-6-(2-(difluoromethyl)-4-fluorophenyl)pyridin-3-yl)piperidin-3-yl)-2,2-difluoroethan-1-ol], the IC50 in assay [1] was 140 nM; in assay [2] it was 1130 nM; on NSD2 [1-1365] it was 1 to 10 nM.
For `COc1cc(F)c(-c2cc(Cn3cnc4c(N)ncnc43)c(N3CCC[C@](N)([C@@H](O)C(F)F)C3)cn2)cc1F` [Example 160, (R)-1-((R)-3-amino-1-(4-((6-amino-9H-purin-9-yl)methyl)-6-(2,5-difluoro-4-methoxyphenyl)pyridin-3-yl)piperidin-3-yl)-2,2-difluoroethan-1-ol] the same measures were 35 nM, 434 nM and 1 to 10 nM.
